In brackets after ≈: the same amount, converted by molar mass. Activity calls are given as the source filed them. No cut-off for these calls is given here.
Experiments:
Vero = assay: Cytotoxicity against African green monkey Vero cells by microplate alamar blue assay; format: cell-based; conditions: Chlorocebus sabaeus
[1] = Selectivity index, ratio of IC50 for African green monkey Vero cells to MIC=; format: toxicity; conditions: read-out: Ratio IC50
[2] = tested on: Mycobacterium tuberculosis; assay: Antitubercular activity against Mycobacterium tuberculosis H37Rv measured after 7 days by alamar blue assay; format: functional; conditions: 168 h
[3] = tested on: Mycobacterium tuberculosis; assay: Antitubercular activity against Mycobacterium tuberculosis H37Rv by microdilution method; format: functional
[4] = tested on: Mycobacterium tuberculosis; assay: Bactericidal activity against Mycobacterium tuberculosis H37Rv assessed as reduction in colony forming units incubated for 14 days followed by replating on 7H11 agar plates and measured by broth dilution method; format: functional
[5] = Cytotoxicity against human QSG7701 cells measured after 48 hrs by CellTiter 96 AQueous One Solution Cell Proliferation assay; format: cell-based; conditions: QSG7701, 48 h
MRC5 = assay: Cytotoxicity against human MRC5 cells measured after 48 hrs by CellTiter 96 AQueous One Solution Cell Proliferation assay; format: cell-based; conditions: MRC5, 48 h
HFL1 = assay: Cytotoxicity against HFL1 cells measured after 48 hrs by CellTiter 96 AQueous One Solution Cell Proliferation assay; format: cell-based; conditions: Homo sapiens, HFL1, 48 h
HEK293 = assay: Cytotoxicity against HEK293 cells measured after 48 hrs by CellTiter 96 AQueous One Solution Cell Proliferation assay; format: cell-based; conditions: Homo sapiens, HEK293, 48 h
Staphylococcus aureus = assay: Growth inhibition of Staphylococcus aureus Newman; format: organism-based; conditions: in vivo
Bacillus subtilis = assay: Growth inhibition of Bacillus subtilis 168; format: organism-based, subsp. subtilis str. 168
Escherichia coli [6] = assay: Growth inhibition of Escherichia coli AB1157; format: organism-based; conditions: in vivo
Escherichia coli [7] = assay: Growth inhibition of Escherichia coli DH5[alpha]; format: organism-based; conditions: in vivo
[8] = tested on: Mycobacterium tuberculosis; assay: Antitubercular activity against Mycobacterium tuberculosis H37Rv exposed to 1:1024 diluted serum from 50 mg/kg, po treated BALB/c mouse assessed as reduction in bacterial growth measured after 7 days by microplate alamar blue assay; format: functional, organism-based
in vitro [9] = conditions: human, liver microsomes
Description: Stability in human liver microsomes assessed as parent compound remaining measured after 60 mins

in vitro [10] = conditions: human, liver microsomes; remark: listed apart in the source
Description: Half life in human liver microsomes

in vitro [11] = conditions: human, liver microsomes; remark: listed apart in the source
Description: Intrinsic clearance in human liver microsomes

in vitro [12] = conditions: human, liver microsomes; remark: listed apart in the source
Description: Intrinsic clearance in human liver measured from intrinsic clearance in human liver microsomes

[13] = tested on: Mycobacterium tuberculosis; assay: Antitubercular activity against Mycobacterium tuberculosis H37Rv; format: functional
[14] = tested on: Mycobacterium tuberculosis; assay: Antitubercular activity against Mycobacterium tuberculosis H37Rv exposed to serially diluted serum from 100 mg/kg, po treated BALB/c mouse assessed as reduction in bacterial growth measured after 7 days by microplate alamar blue assay; format: functional, organism-based
[15] = tested on: Mycobacterium tuberculosis; assay: Antitubercular activity against Mycobacterium tuberculosis H37Rv measured after 7 days under aerobic condition by resazurin dye based assay; format: functional; conditions: 168 h
[16] = tested on: Mycobacterium tuberculosis; assay: Antitubercular activity against Mycobacterium tuberculosis H37Rv after 6 days by resazurin dye based fluorescence assay; conditions: 144 h
[17] = tested on: Mycobacterium tuberculosis; assay: Antitubercular activity against Mycobacterium tuberculosis H37Rv exposed to serially diluted serum from 10 mg/kg, po treated BALB/c mouse assessed as reduction in bacterial growth measured after 7 days by microplate alamar blue assay; format: functional, organism-based

O=c1oc2ccccc2c2oc3ccc(O)c(CN4CCCC4)c3c12
IC50 (Vero): 8 µg/mL (≈ 23.9 µM) | selectivity ratio [1]: 16

CC(C)(C)c1cc(O)c(CN2CCCCC2)c2c1oc1c3ccccc3oc(=O)c12
IC50 (Vero): 16 µg/mL (≈ 39.5 µM) | selectivity ratio [1]: 128 to 256

CCOC(=O)C1=C(NC(=O)c2c(F)c(F)c(F)c(F)c2F)SC2CN(CC)CCC12 (centres undefined)
MIC [2]: 0.23 µM (≈ 0.104 µg/mL)

CCOC(=O)c1c(NC(=O)c2c(F)c(F)c(F)c(F)c2F)sc(C(N)=O)c1C
MIC [3]: 0.5 µM (≈ 0.211 µg/mL)

CC1CCN(Cc2c(O)ccc3oc4c5ccccc5oc(=O)c4c23)CC1
IC50 (Vero): 16 µg/mL (≈ 44 µM) | selectivity ratio [1]: 32

O=c1oc2cc(O)ccc2c2oc3ccc(O)c(CN4CCCCC4)c3c12
MBC99 [4]: 0.0039 to 0.0078 µg/mL | IC50 [5]: 40.1 µM | IC50 (Vero): 4 µg/mL (≈ 10.9 µM) | selectivity ratio [1]: 1024 | IC50 (MRC5): > 50 µM | IC50 (HFL1): > 50 µM | IC50 (HEK293): > 50 µM | MIC (Staphylococcus aureus): > 25 µg/mL | MIC (Bacillus subtilis): > 25 µg/mL | MIC (Escherichia coli [6]): > 25 µg/mL | MIC (Escherichia coli [7]): > 25 µg/mL | Activity [8]: Active | remaining at 1 h (in vitro [9]): 73.6%

CN(C)[C@@H]1C(O)=C(C(N)=O)C(=O)[C@@]2(O)C(O)=C3C(=O)c4c(O)cccc4[C@@](C)(O)[C@H]3C[C@@H]12 [TETRACYCLINE]
MIC (Bacillus subtilis): > 25 µg/mL

Cc1cc(O)c(CN2CCCCC2)c2c1oc1c3ccccc3oc(=O)c12
IC50 (Vero): 8 µg/mL (≈ 22 µM) | selectivity ratio [1]: 64

O=c1oc2ccccc2c2oc3ccc(O)c(CN4CCCCC4)c3c12
half-life (in vitro [10]): 21.4 min | CLint scaled (in vitro [11]): 64.9 mL/min/kg | CLint scaled (in vitro [12]): 58.4 mL/min/kg | remaining at 1 h (in vitro [9]): 14.5%

CCOC(=O)c1c(-c2ccccc2)oc2ccc(O)c(CN3CCC(C)CC3)c12
MIC [13]: 1 µg/mL (≈ 2.54 µM)

CC(C)(C)c1cc(O)c(CN2CCCCC2)c2c1oc1c3ccc(O)cc3oc(=O)c12
IC50 [5]: 34.1 µM | IC50 (Vero): 8 µg/mL (≈ 19 µM) | selectivity ratio [1]: 2048 | IC50 (MRC5): 30.6 µM | IC50 (HFL1): 22.3 µM | IC50 (HEK293): 33.6 µM | MIC (Bacillus subtilis): > 25 µg/mL | MIC (Escherichia coli [6]): > 25 µg/mL | MIC (Escherichia coli [7]): > 25 µg/mL | Activity [14]: Active | Activity [8]: inactive

C=CCCCCCCC[C@H]1C(=O)O[C@@H]1CCCCCNC(=O)c1ccc(N(C)C)cc1
MIC [15]: 0.68 µg/mL (≈ 1.59 µM)

O=c1oc2ccc(O)cc2c2oc3ccc(O)c(CN4CCCCC4)c3c12
IC50 (Vero): 4 µg/mL (≈ 10.9 µM) | selectivity ratio [1]: 8

COC(=O)c1c(NC(=O)c2c(F)c(F)c(F)c(F)c2F)sc2c1CCCCC2
MIC [3]: 1 µM (≈ 0.419 µg/mL)

CCOC(=O)c1c(-c2ccccc2)oc2ccc(O)c(CN3CCCCC3)c12
half-life (in vitro [10]): 53 min | CLint scaled (in vitro [11]): 26.2 mL/min/kg | CLint scaled (in vitro [12]): 23.6 mL/min/kg | remaining at 1 h (in vitro [9]): 46.6%

O=C(O)Cc1ccccc1Nc1c(Cl)cccc1Cl [DICLOFENAC]
half-life (in vitro [10]): 11.9 min | CLint scaled (in vitro [12]): 105 mL/min/kg

CN[C@H](CC(C)C)C(=O)N[C@H]1C(=O)N[C@@H](CC(N)=O)C(=O)N[C@H]2C(=O)N[C@H]3C(=O)N[C@H](C(=O)N[C@H](C(=O)O)c4cc(O)cc(O)c4-c4cc3ccc4O)[C@H](O)c3ccc(c(Cl)c3)Oc3cc2cc(c3O[C@@H]2O[C@H](CO)[C@@H](O)[C@H](O)[C@H]2O[C@H]2C[C@](C)(N)[C@H](O)[C@H](C)O2)Oc2ccc(cc2Cl)[C@H]1O [VANCOMYCIN]
MIC (Bacillus subtilis): > 25 µg/mL | MIC (Escherichia coli [6]): > 25 µg/mL | MIC (Escherichia coli [7]): > 25 µg/mL

CNC(=O)c1c(-c2ccc(O)cc2)oc2ccc(O)c(CN3CCCCC3)c12
Activity [14]: Active | MIC [16]: 0.0313 µg/mL (≈ 0.0823 µM)

CC1CCCCN1Cc1c(O)ccc2oc3c4ccccc4oc(=O)c3c12 (centres undefined)
IC50 (Vero): 16 µg/mL (≈ 44 µM) | selectivity ratio [1]: 16

C[C@]12CC[C@H]3[C@@H](CCC4=CC(=O)CC[C@@]43C)[C@@H]1CC[C@@H]2O [TESTOSTERONE]
CLint scaled (in vitro [12]): 62.8 mL/min/kg | remaining at 1 h (in vitro [9]): 12.5%

CCOC(=O)c1c(-c2ccc(O)cc2)oc2ccc(O)c(CN3CCCCC3)c12
CLint scaled (in vitro [12]): 66.3 mL/min/kg | remaining at 1 h (in vitro [9]): 10.8%

NNC(=O)c1ccncc1
Activity [17]: Active

CC(C)(C)c1cc(O)c(CN2CCCCC2)c2c1oc1c3cc(O)ccc3oc(=O)c12
IC50 (Vero): 8 µg/mL (≈ 19 µM) | selectivity ratio [1]: 64
